Source: patent publication US20160039879A1, “NOVEL CYCLOSPORIN DERIVATIVES AND USES THEREOF” (S&T Global Inc., priority 2013, published 2016)
Starred links: 1 amine or outer side, 2 acyl side, 3 side chain; linkers in the order of their positions; H or OH if unused. Non-standard residues stand in square brackets, D forms with d. Residues, ends and D or L forms follow the SMILES beside them. X12 = COc1ccc(COC(C)(C)C[C@@H](C(=O)[*:2])N(C)[*:1])cc1; X8 = CN([C@@H](CC(C)(C)OCc1ccccc1)C(=O)[*:2])[*:1]; MeBmt = C/C=C/C[C@@H](C)[C@@H](O)[C@H](NC)C(=O)O; X3 = CN([C@H](SCCCN1CCOCC1)C(=O)[*:2])[*:1]; X7 = CCN(CC)CCS[C@@H](C(=O)[*:2])N(C)[*:1]; X13 = CCOCOC(C)(C)CC(C(=O)[*:2])N(C)[*:1]; X2 = CCN(CC)CCS[C@H](C(=O)[*:2])N(C)[*:1]; X4 = CC=CCC(C)C(O)C(C(=O)[*:2])N(C)[*:1]; X9 = CN(C(SCCCN1CCOCC1)C(=O)[*:2])[*:1]; NMeL = CN[CH](CC(C)C)C(=O)O; NMeV = CN[CH](C(=O)O)C(C)C; Abu = CC[CH](N)C(=O)O

The compounds below were run on HCV replicon in cell line ET (luc-ubi-neo/ET), Huh7 human hepatoma cell line (assay: HCV subgenomic replicon assay (luciferase end point)). Conditions: Hepatitis C virus, Huh-7, Table 11, HCV replicon, read-out: Antiviral activity EC50.
Format: cell-based

Row | Compound | EC50
1 | C/C=C/C[C@@H](C)[C@@H](O)[C@H]1C(=O)N[C@@H](CC)C(=O)N(C)[C@H](SCCCN2CCOCC2)C(=O)N(C)[C@@H](CC(C)(C)O)C(=O)N[C@@H](C(C)C)C(=O)N(C)[C@@H](CC(C)C)C(=O)N[C@@H](C)C(=O)N[C@H](C)C(=O)N(C)[C@@H](CC(C)C)C(=O)N(C)[C@@H](CC(C)C)C(=O)N(C)[C@@H](C(C)C)C(=O)N1C [[(R)-3-(N-Morpholino)propylthio-Sar]-3-[(γ-hydroxy)-NMeLeu]-4-cyclosporin] | 50 nM
2 | C/C=C/C[C@@H](C)[C@@H](O)[C@H]1C(=O)N[C@@H](CC)C(=O)N(C)[C@H](SCCCN(CC)CC)C(=O)N(C)[C@@H](CC(C)(C)O)C(=O)N[C@@H](C(C)C)C(=O)N(C)[C@@H](CC(C)C)C(=O)N[C@@H](C)C(=O)N[C@H](C)C(=O)N(C)[C@@H](CC(C)C)C(=O)N(C)[C@@H](CC(C)C)C(=O)N(C)[C@@H](C(C)C)C(=O)N1C [[(R)-3-(N,N Diethylamino)propylthio-Sar]-3-[(γ-hydroxy)-NMeLeu]-4-cyclosporin] | 70 nM

Same assay, conditions: Hepatitis C virus, Huh-7, Table 13, HCV replicon, read-out: Antiviral activity EC50

Row | Compound | EC50
3 | C/C=C/C[C@@H](C)[C@@H](O)[C@H]1C(=O)N[C@@H](CC)C(=O)N(C)[C@H](CSCCN(CC)CC)C(=O)N(C)[C@@H](CC(C)C)C(=O)N[C@@H](C(C)C)C(=O)N(C)[C@@H](CC(C)C)C(=O)N[C@@H](C)C(=O)N[C@H](C)C(=O)N(C)[C@@H](CC(C)C)C(=O)N(C)[C@@H](CC(C)C)C(=O)N(C)[C@@H](C(C)C)C(=O)N1C (single isomer, unassigned) [Example 7, isomer B] | 160 nM
4 | C/C=C/C[C@@H](C)[C@@H](O)[C@H]1C(=O)N[C@@H](CC)C(=O)N(C)[C@H](CSCCN(C)C)C(=O)N(C)[C@@H](CC(C)C)C(=O)N[C@@H](C(C)C)C(=O)N(C)[C@@H](CC(C)C)C(=O)N[C@@H](C)C(=O)N[C@H](C)C(=O)N(C)[C@@H](CC(C)C)C(=O)N(C)[C@@H](CC(C)C)C(=O)N(C)[C@@H](C(C)C)C(=O)N1C (single isomer, unassigned) [Example 6, isomer B] | 170 nM

Same assay, conditions: Hepatitis C virus, Huh-7, Table 15, HCV replicon, read-out: Antiviral activity EC50

Row | Compound | EC50
5 | C/C=C/C[C@@H](C)[C@@H](O)[C@H]1C(=O)N[C@@H](CC)C(=O)N(C)[C@H](CSC/C(=C/CN(CC)CC)CCC)C(=O)N(C)[C@@H](CC(C)(C)O)C(=O)N[C@@H](C(C)C)C(=O)N(C)[C@@H](CC(C)C)C(=O)N[C@@H](C)C(=O)N[C@H](C)C(=O)N(C)[C@@H](CC(C)C)C(=O)N(C)[C@@H](CC(C)C)C(=O)N(C)[C@@H](C(C)C)C(=O)N1C | 60 nM
6 | C/C=C/C[C@@H](C)[C@@H](O)[C@H]1C(=O)N[C@@H](CC)C(=O)N(C)[C@H](CSCC[C@@H](CO)CCC)C(=O)N(C)[C@@H](CC(C)(C)O)C(=O)N[C@@H](C(C)C)C(=O)N(C)[C@@H](CC(C)C)C(=O)N[C@@H](C)C(=O)N[C@H](C)C(=O)N(C)[C@@H](CC(C)C)C(=O)N(C)[C@@H](CC(C)C)C(=O)N(C)[C@@H](C(C)C)C(=O)N1C | 70 nM
7 | C/C=C/C[C@@H](C)[C@@H](O)[C@H]1C(=O)N[C@@H](CC)C(=O)N(C)[C@H](CSCCCCC(CO)CO)C(=O)N(C)[C@@H](CC(C)(C)O)C(=O)N[C@@H](C(C)C)C(=O)N(C)[C@@H](CC(C)C)C(=O)N[C@@H](C)C(=O)N[C@H](C)C(=O)N(C)[C@@H](CC(C)C)C(=O)N(C)[C@@H](CC(C)C)C(=O)N(C)[C@@H](C(C)C)C(=O)N1C | 70 nM
8 | C/C=C/C[C@@H](C)[C@@H](O)[C@H]1C(=O)N[C@@H](CC)C(=O)N(C)[C@H](CSCC[C@H](CO)CCC)C(=O)N(C)[C@@H](CC(C)(C)O)C(=O)N[C@@H](C(C)C)C(=O)N(C)[C@@H](CC(C)C)C(=O)N[C@@H](C)C(=O)N[C@H](C)C(=O)N(C)[C@@H](CC(C)C)C(=O)N(C)[C@@H](CC(C)C)C(=O)N(C)[C@@H](C(C)C)C(=O)N1C | 70 nM
9 | C/C=C/C[C@@H](C)[C@@H](O)[C@H]1C(=O)N[C@@H](CC)C(=O)N(C)[C@H](CSCCCCC(C)(C)O)C(=O)N(C)[C@@H](CC(C)(C)O)C(=O)N[C@@H](C(C)C)C(=O)N(C)[C@@H](CC(C)C)C(=O)N[C@@H](C)C(=O)N[C@H](C)C(=O)N(C)[C@@H](CC(C)C)C(=O)N(C)[C@@H](CC(C)C)C(=O)N(C)[C@@H](C(C)C)C(=O)N1C | 60 nM

Same assay, conditions: Table 10, HCV replicon, read-out: Antiviral activity EC50

Row | Compound | EC50
10 | C/C=C/C[C@@H](C)[C@@H](O)[C@H]1C(=O)N[C@@H](CC)C(=O)N(C)[C@H](SCCN(CC)CC)C(=O)N(C)[C@@H](C(C)C)C(=O)N[C@@H](C(C)C)C(=O)N(C)[C@@H](CC(C)C)C(=O)N[C@@H](C)C(=O)N[C@H](C)C(=O)N(C)[C@@H](CC(C)C)C(=O)N(C)[C@@H](CC(C)C)C(=O)N(C)[C@@H](C(C)C)C(=O)N1C [(R)-2-(N,N-Diethylamino)ethylthio-Sar]-3-[N-MeVal]-4-cyclosporin] (cyclo(A[dA][NMeL][NMeL][NMeV][MeBmt][Abu][X2][NMeV]V[NMeL])) | 40 nM
11 | (R)-2-(N-iso-Butyl-N-iso-propylamino)ethylthio-Sar]-3-cyclosporin | 480 nM
12 | CC=CCC(C)C(O)C1C(=O)NC(CC)C(=O)N(C)C(SCCN(CC(C)C)C(C)C)C(=O)N(C)C(CC(C)C)C(=O)NC(C(C)C)C(=O)N(C)C(CC(C)C)C(=O)NC(C)C(=O)NC(C)C(=O)N(C)C(CC(C)C)C(=O)N(C)C(CC(C)C)C(=O)N(C)C(C(C)C)C(=O)N1C [(S)-2-(N-iso-Butyl-N-iso-propylamino)ethylthio-Sar]-3-cyclosporin] | 4650 nM
13 | C/C=C/C[C@@H](C)[C@@H](O)[C@H]1C(=O)N[C@@H](CC)C(=O)N(C)[C@@H](SCCN(CC)CC)C(=O)N(C)[C@@H](C(C)C)C(=O)N[C@@H](C(C)C)C(=O)N(C)[C@@H](CC(C)C)C(=O)N[C@@H](C)C(=O)N[C@H](C)C(=O)N(C)[C@@H](CC(C)C)C(=O)N(C)[C@@H](CC(C)C)C(=O)N(C)[C@@H](C(C)C)C(=O)N1C [(S)-2-(N,N-Diethylamino)ethylthio-Sar]-3-[N-MeVal]-4-cyclosporin] (cyclo(A[dA][NMeL][NMeL][NMeV][MeBmt][Abu][X7][NMeV]V[NMeL])) | 3660 nM

Same assay, conditions: Table 11, HCV replicon, read-out: Antiviral activity EC50

Row | Compound | EC50
14 | C/C=C/C[C@@H](C)[C@@H](O)[C@H]1C(=O)N[C@@H](CC)C(=O)N(C)[C@H](SCCCN2CCOCC2)C(=O)N(C)[C@@H](CC(C)(C)OCc2ccccc2)C(=O)N[C@@H](C(C)C)C(=O)N(C)[C@@H](CC(C)C)C(=O)N[C@@H](C)C(=O)N[C@H](C)C(=O)N(C)[C@@H](CC(C)C)C(=O)N(C)[C@@H](CC(C)C)C(=O)N(C)[C@@H](C(C)C)C(=O)N1C [[(R)-(3-(N-Morpholino)propylthio-Sar]-3-[(γ-benzyloxy)-N-MeLeu]-4-cyclosporin] (cyclo(A[dA][NMeL][NMeL][NMeV][MeBmt][Abu][X3][X8]V[NMeL])) | 280 nM
15 | C/C=C/C[C@@H](C)[C@@H](O)[C@H]1C(=O)N[C@@H](CC)C(=O)N(C)[C@H](SCCCN2CCOCC2)C(=O)N(C)[C@@H](CC(C)(C)OCc2ccc(OC)cc2)C(=O)N[C@@H](C(C)C)C(=O)N(C)[C@@H](CC(C)C)C(=O)N[C@@H](C)C(=O)N[C@H](C)C(=O)N(C)[C@@H](CC(C)C)C(=O)N(C)[C@@H](CC(C)C)C(=O)N(C)[C@@H](C(C)C)C(=O)N1C (cyclo(A[dA][NMeL][NMeL][NMeV][MeBmt][Abu][X3][X12]V[NMeL])) | 280 nM
16 | CC=CCC(C)C(O)C1C(=O)NC(CC)C(=O)N(C)C(SCCCN2CCOCC2)C(=O)N(C)C(CC(C)(C)OCOCC)C(=O)NC(C(C)C)C(=O)N(C)C(CC(C)C)C(=O)NC(C)C(=O)NC(C)C(=O)N(C)C(CC(C)C)C(=O)N(C)C(CC(C)C)C(=O)N(C)C(C(C)C)C(=O)N1C (stereo not shown) (cyclo([X4][Abu][X9][X13]V[NMeL]AA[NMeL][NMeL][NMeV]); configuration not given here) | 160 nM
